According to patent US9845322B2 (Hoffmann-La Roche Inc., priority 2016, dated 2017):
Where two headings read alike, the source gives them in different places.

System: HBsAg secretion in HepG2.2.15 cells
Assay: HBsAg assay (chemiluminescence immunoassay of secreted HBsAg in culture supernatant)
Format: cell-based, HBV
Conditions: concentration at which HBsAg secretion was reduced by 50% compared to the no drug control, read-out: IC50 (HBsAg assay)
Summary of the method: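 IC50 taken from dose-response curves as the concentration halving secreted HBsAg relative to DMSO control. Measured by chemiluminescence immunoassay of culture supernatant from constitutively HBV-expressing HepG2.2.15 cells, seeded at 1.5×10^4/well in duplicate and exposed to three-fold serial compound dilutions at 1% final DMSO.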

[1] = Hepatitis B virus, HepG2.2.15, HepG2.2.15 cells

CCC1c2cnc(-c3ccccn3)nc2CCN1c1cc(F)c(F)c(OC)c1 (single isomer, unassigned; (+)) [Example 10, (+)-6-(3,4-difluoro-5-methoxy-phenyl)-5-ethyl-2-(2-pyridyl)-7,8-dihydro-5H-pyrido[4,3-d]pyrimidine]
IC50 (HepG2.2.15 cells): 21900 nM

CC1c2cnc(-c3ncccn3)nc2CCN1c1cc(F)c(F)c(OCCCS(C)(=O)=O)c1 (single isomer, unassigned; (+)) [Example 48, (+)-6-[3,4-difluoro-5-(3-methylsulfonylpropoxy)phenyl]-5-methyl-2-pyrimidin-2-yl-7,8-dihydro-5H-pyrido[4,3-d]pyrimidine]
IC50 (HepG2.2.15 cells): 184 nM

CC1c2cnc(-c3ccccn3)nc2CCN1c1cc(N2CCNC(=O)C2)cc(F)n1 (centres unmarked) [Example 222, 4-[2-fluoro-6-[5-methyl-2-(2-pyridyl)-7,8-dihydro-5H-pyrido[4,3-d]pyrimidin-6-yl]-4-pyridyl]piperazin-2-one]
IC50 [1]: 16 nM

CCC1c2cnc(-c3ccccn3)nc2CCN1c1cc(F)c(F)c(OC)c1 (centres unmarked) [Example 9, 6-(3,4-difluoro-5-methoxy-phenyl)-5-ethyl-2-(2-pyridyl)-7,8-dihydro-5H-pyrido[4,3-d]pyrimidine]
IC50 (HepG2.2.15 cells): 183 nM

CC1c2cnc(-c3ncccn3)nc2CCN1c1cc(F)c(F)c(OCCCN2CCNCC2=O)c1 (centres unmarked) [Example 99, 1-[3-[2,3-difluoro-5-(5-methyl-2-pyrimidin-2-yl-7,8-dihydro-5H-pyrido[4,3-d]pyrimidin-6-yl)phenoxy]propyl]piperazin-2-one]
IC50 [1]: 1270 nM

CC1c2cnc(-c3ncccn3)nc2CCN1c1cc(F)cc(C(=O)O)c1 (centres unmarked) [Example 176, 3-fluoro-5-(5-methyl-2-pyrimidin-2-yl-7,8-dihydro-5H-pyrido[4,3-d]pyrimidin-6-yl)benzoic acid]
IC50 [1]: 27800 nM

CC1c2cnc(-c3ccccn3)nc2CCN1c1cc(F)c(F)c(OCC(N)=O)c1 (centres unmarked) [Example 29, 2-[2,3-difluoro-5-[5-methyl-2-(2-pyridyl)-7,8-dihydro-5H-pyrido[4,3-d]pyrimidin-6-yl]phenoxy]acetamide]
IC50 [1]: 50 nM

CC1c2cnc(-c3ncccn3)nc2CCN1c1cc(F)c(F)c(OCCCCCN)c1 (centres unmarked) [Example 57, 5-[2,3-difluoro-5-(5-methyl-2-pyrimidin-2-yl-7,8-dihydro-5H-pyrido[4,3-d]pyrimidin-6-yl)phenoxy]pentan-1-amine]
IC50 [1]: 110 nM

COCCOc1cc(N2CCc3nc(-c4ccccn4)ncc3C2C)cc(F)c1F (single isomer, unassigned; (-)) [Example 21, (−)-6-[3,4-difluoro-5-(2-methoxyethoxy)phenyl]-5-methyl-2-(2-pyridyl)-7,8-dihydro-5H-pyrido[4,3-d]pyrimidine]
IC50 (HepG2.2.15 cells): 50 nM

COc1cc(N2CCc3nc(-c4ccccn4)ncc3C2C2CC2)cc(F)c1F (centres unmarked) [Example 18]
IC50 [1]: 363 nM

CC1c2cnc(-c3ncccn3)nc2CCN1c1cc(F)cc(N(C)C)n1 (single isomer, unassigned; (+)) [Example 204, (+)-4-fluoro-N,N-dimethyl-6-[5-methyl-2-pyrimidin-2-yl-7,8-dihydro-5H-pyrido[4,3-d]pyrimidin-6-yl]pyridin-2-amine]
IC50 (HepG2.2.15 cells): 113 nM

CC1c2cnc(-c3ncccn3)nc2CCN1c1cc(F)cc(C2CC2)c1 (centres unmarked) [Example 137, 6-(3-cyclopropyl-5-fluoro-phenyl)-5-methyl-2-pyrimidin-2-yl-7,8-dihydro-5H-pyrido[4,3-d]pyrimidine]
IC50 [1]: 124 nM

CC1c2cnc(-c3ncccn3)nc2CCN1c1cc(F)c(F)c(OCCC(NC(=O)OC(C)(C)C)C(=O)O)c1 (centres unmarked) [Example 103, 2-(tert-butoxycarbonylamino)-4-[2,3-difluoro-5-(5-methyl-2-pyrimidin-2-yl-7,8-dihydro-5H-pyrido[4,3-d]pyrimidin-6-yl)phenoxy]butanoic acid]
IC50 [1]: 2160 nM

COc1cc(F)nc(N2CCc3nc(-c4ncccn4)ncc3C2C)c1Cl (single isomer, unassigned; (-)) [Example 147, (−)-6-(3-chloro-6-fluoro-4-methoxy-2-pyridyl)-5-methyl-2-pyrimidin-2-yl-7,8-dihydro-5H-pyrido[4,3-d]pyrimidine]
IC50 [1]: 21 nM

CC1c2cnc(-c3ncccn3)nc2CCN1c1cc(OCCCC(N)=O)cc(F)n1 (single isomer, unassigned; (-)) [Example 185, (−)-4-[[2-fluoro-6-[5-methyl-2-pyrimidin-2-yl-7,8-dihydro-5H-pyrido[4,3-d]pyrimidin-6-yl]-4-pyridyl]oxy]butanamide]
IC50 [1]: 14 nM

CC1c2cnc(-c3ncccn3)nc2CCN1c1cc(N(C)C)cc(F)n1 (centres unmarked) [Example 196, 2-fluoro-N,N-dimethyl-6-(5-methyl-2-pyrimidin-2-yl-7,8-dihydro-5H-pyrido[4,3-d]pyrimidin-6-yl)pyridin-4-amine]
IC50 (HepG2.2.15 cells): 2 nM

CC1c2cnc(-c3ncccn3)nc2CCN1c1cc(F)c(F)c(OCCCCCCCCNC(=O)OC(C)(C)C)c1 (centres unmarked) [Example 54, tert-butyl N-[8-[2,3-difluoro-5-(5-methyl-2-pyrimidin-2-yl-7,8-dihydro-5H-pyrido[4,3-d]pyrimidin-6-yl)phenoxy]octyl]carbamate]
IC50 [1]: 146 nM

CC1c2cnc(-c3ncccn3)nc2CCN1c1cc(NS(C)(=O)=O)cc(F)n1 (centres unmarked) [Example 211, N-[2-fluoro-6-(5-methyl-2-pyrimidin-2-yl-7,8-dihydro-5H-pyrido[4,3-d]pyrimidin-6-yl)-4-pyridyl]methanesulfonamide]
IC50 [1]: 270 nM

COc1cc(N2CCc3nc(-c4ncccn4)ncc3C2C)nc(F)c1Cl (single isomer, unassigned; (-)) [Example 146, (−)-6-(5-chloro-6-fluoro-4-methoxy-2-pyridyl)-5-methyl-2-pyrimidin-2-yl-7,8-dihydro-5H-pyrido[4,3-d]pyrimidine]
IC50 [1]: 2 nM

CC1c2cnc(-c3ncccn3)nc2CCN1c1cc(F)cc(OCC(F)F)n1 (centres unmarked) [Example 148, 6-[6-(2,2-difluoroethoxy)-4-fluoro-2-pyridyl]-5-methyl-2-pyrimidin-2-yl-7,8-dihydro-5H-pyrido[4,3-d]pyrimidine]
IC50 [1]: 17 nM

CCOC(=O)CCCCCCOc1cc(N2CCc3nc(-c4ncccn4)ncc3C2C)cc(F)c1F (centres unmarked) [Example 85, ethyl 7-[2,3-difluoro-5-(5-methyl-2-pyrimidin-2-yl-7,8-dihydro-5H-pyrido[4,3-d]pyrimidin-6-yl)phenoxy]heptanoate]
IC50 [1]: 156 nM

COc1cc(F)cc(N2CCc3nc(-c4ncccn4)ncc3C2C)c1Cl (single isomer, unassigned; (-)) [Example 131, (−)-6-(2-chloro-5-fluoro-3-methoxy-phenyl)-5-methyl-2-pyrimidin-2-yl-7,8-dihydro-5H-pyrido[4,3-d]pyrimidine]
IC50 [1]: 2 nM

COC(=O)c1cc(F)cc(N2CCc3nc(-c4ncccn4)ncc3C2C)c1 (centres unmarked) [Example 175, methyl 3-fluoro-5-(5-methyl-2-pyrimidin-2-yl-7,8-dihydro-5H-pyrido[4,3-d]pyrimidin-6-yl)benzoate]
IC50 [1]: 1460 nM

CC1c2cnc(-c3ccccn3)nc2CCN1c1ccc(S(C)(=O)=O)cc1 (centres unmarked) [Example 23, 5-methyl-6-(4-methylsulfonylphenyl)-2-(2-pyridyl)-7,8-dihydro-5H-pyrido[4,3-d]pyrimidine]
IC50 [1]: 1490 nM

COc1cc(N2CCc3cc(-c4ncccn4)ncc3C2C)cc(F)c1-c1ccncc1 (centres unmarked) [Example 136, 2-[3-fluoro-5-methoxy-4-(4-pyridyl)phenyl]-1-methyl-6-pyrimidin-2-yl-3,4-dihydro-1H-2,7-naphthyridine]
IC50 [1]: 357 nM

CC1c2cnc(-c3ncccn3)nc2CCN1c1cc(F)cc(N(C)C)n1 (single isomer, unassigned; (-)) [Example 205, (−)-4-fluoro-N,N-dimethyl-6-[5-methyl-2-pyrimidin-2-yl-7,8-dihydro-5H-pyrido[4,3-d]pyrimidin-6-yl]pyridin-2-amine]
IC50 (HepG2.2.15 cells): 5 nM

CC1c2cnc(-c3ncccn3)nc2CCN1c1cc(F)cc(N2CCCC2)n1 (centres unmarked) [Example 199, 6-(4-fluoro-6-pyrrolidin-1-yl-2-pyridyl)-5-methyl-2-pyrimidin-2-yl-7,8-dihydro-5H-pyrido[4,3-d]pyrimidine]
IC50 [1]: 18 nM

COc1cc(F)nc(N2CCc3nc(-c4ncccn4)ncc3C2C)c1 (single isomer, unassigned; (-)) [Example 138, (−)-6-(6-fluoro-4-methoxy-2-pyridyl)-5-methyl-2-pyrimidin-2-yl-7,8-dihydro-5H-pyrido[4,3-d]pyrimidine]
IC50 (HepG2.2.15 cells): 11 nM

CC1c2cnc(-c3ncccn3)nc2CCN1c1cc(F)c(F)c(OCCCN2CCN(C(=O)OC(C)(C)C)CC2)c1 (centres unmarked) [Example 108, tert-butyl 4-[3-[2,3-difluoro-5-(5-methyl-2-pyrimidin-2-yl-7,8-dihydro-5H-pyrido[4,3-d]pyrimidin-6-yl)phenoxy]propyl]piperazine-1-carboxylate]
IC50 [1]: 84 nM

CC1c2cnc(-c3ncccn3)nc2CCN1c1cc(F)c(F)c(OCCC2CN(C(=O)OC(C)(C)C)C2)c1 (centres unmarked) [Example 115, tert-butyl 3-[2-[2,3-difluoro-5-(5-methyl-2-pyrimidin-2-yl-7,8-dihydro-5H-pyrido[4,3-d]pyrimidin-6-yl)phenoxy]ethyl]azetidine-1-carboxylate]
IC50 [1]: 12 nM

CC1c2cnc(-c3ncccn3)nc2CCN1c1cc(F)c(F)c(OCCCN2CCN(C(=O)OC(C)(C)C)CC2=O)c1 (centres unmarked) [Example 98, tert-butyl 4-[3-[2,3-difluoro-5-(5-methyl-2-pyrimidin-2-yl-7,8-dihydro-5H-pyrido[4,3-d]pyrimidin-6-yl)phenoxy]propyl]-3-oxo-piperazine-1-carboxylate]
IC50 [1]: 372 nM

CC1c2cnc(-c3ccccn3)nc2CCN1c1cc(N(C)C)cc(F)n1 (centres unmarked) [Example 216, 2-fluoro-N,N-dimethyl-6-[5-methyl-2-(2-pyridyl)-7,8-dihydro-5H-pyrido[4,3-d]pyrimidin-6-yl]pyridin-4-amine]
IC50 [1]: 13 nM
